Converted amounts (≈) assume the structure as drawn. Structures can show the parent of a compound that is named as a salt.
Key:
[1] = system: MCF-7 cells; assay: TUNEL colorimetric apoptosis assay; assay type: cell-based, human; conditions: 15 µg/mL, 28 h, compared with untreated cells
Procedure: Apoptosis was detected using terminal deoxynucleotidyl transferase (TdT) mediated-16-deoxyuridine triphosphate (dUTP) Nick-End Labelling (TUNEL) system (Promega, Madison, WI, USA). MCF-7 cells cultured in 24 well plates were treated with 15 µg/mL of either 3-O-methylquercetin or 3,3′-di-O-methylquercetin for 28 h. The assay was conducted according to the manufacturer's instructions. Briefly, treated cells were fixed using 10% formalin followed by washing with phosphate buffer saline (PBS). Cells were then permeabilized using 0.2% triton X-100. Biotinylated dUTP in rTdT reaction mixture was added to label the fragmented DNA at 37 °C for one hour, followed by blocking endogenous peroxidases using 0.3% hydrogen peroxide. Streptavidin HRP (1:500 in PBS) was added and incubated at room temperature for 30 min. Finally, hydrogen peroxide and chromagen diaminobenzidine were used to visualize nuclei with fragmented DNAs under the light microscope (Novex, Arnhem, Holland). Cells treated with 40 nM vincristine sulfate were used as a positive control while untreated cells were used as a negative control.

[2] = system: MCF-7 cells; assay: Scanning electron microscopy of MCF-7 cells; assay type: cell-based, human; conditions: 15 µg/mL compound (vincristin sulfate 40 nM), 48 h
Procedure: MCF-7 cells were cultured in complete DMEM containing either 15 µg/mL of 3-O-methylquercetin or 3,3′-di-O-methylquercetin and incubated for 48 h in humidified CO2 incubator. Negative control cells were incubated with complete DMEM and positive control cells received complete DMEM containing 40 nM vincristin sulfate. Treated cells were fixed with 3% glutaraldehyde for 1.5 h followed by osmium tetroxide (2% in PBS) for 1 h. After fixation, cells were washed in PBS and sequentially dehydrated using 30%, 70%, and 100% ethanol. Fixed cells were attached to a metal stubs and sputter coated with platinum by using Emitech K550X coating unit (Qourum Technology, West Sussex, UK). The coated specimens were viewed using Inspect F50/FEG scanning electron microscope (FEI, Eindhoven, The Netherlands) at accelerating voltage of 2–5 kV. Bacillus cereus cells treated with 3,3′-di-O-methylquercetin for 24 h were collected by centrifugation and washed with sodium phosphate buffer. Following that, the samples were fixed in 2.5% glutaraldehyde in 0.1 M phosphate buffer, pH 7.3, at 4 °C overnight, and postfixed in 1% osmium tetroxide in the phosphate buffer for 1 h at room temperature. Bacterial cells were dehydrated with sequential ethanol concentrations (30–100%) and coated for the observations under scanning electron microscope.

[3] = system: MCF-7 cells; assay: MTT antiproliferative activity assay, MCF-7; assay type: cell-based, human; conditions: MTT, 48 h treatment, average of three replicates; for IC50: Homo sapiens, MCF7, read-out: IC50 MCF-7
Procedure: (§1) Hep-2 (larynx carcinoma, ATCC: CCL-23), MCF-7 (breast epithelial adenocarcinoma, ATCC: HTB-22), and Vero (African green monkey kidney, ATCC: CCL-81) cell lines were kindly provided by Dr. Mona Hassuneh (Department of Biological Sciences, University of Jordan). Cells were grown in Minimum Essential Medium Eagle (Gibco, Paisley UK) supplemented with 10% heat inactivated fetal bovine serum (Gibco, Paisley UK), 29 μg/mL L-glutamine, and 40 μg/mL gentamicin. Cells were incubated in a humidified atmosphere of 5% CO2 at 37 °C.
(§2) The antiproliferative activity of Inula viscosa compounds was measured using the MTT (3-(4,5-dimethylthiazol-2-yl)-2,5-diphenyltetrazolium bromide) assay (Promega, Madison, WI, USA). The assay detects the reduction of MTT by mitochondrial dehydrogenase to blue formazan product, which reflects the normal function of mitochondria and cell viability. Exponentially growing cells were washed and seeded at 17,000 cells/well for Hep-2 cell line and 11,000 cells/ well for MCF-7 cell line (in 200 μL of growth medium) in 96 well microplates (Nunc, Roskilde, Denmark). After 24 h incubation, a partial monolayer was formed then the media was removed and 200 μL of the medium containing the compound (initially dissolved in DMSO) were added and re-incubated for 48 h. Then 100 μL of the medium were aspirated and 15 μL of the MTT solution were added to the remaining medium (100 μL) in each well. After 4 h contact with the MTT solution, blue crystals were formed. One hundred μL of the stop solution were added and incubated further for 1 h.
(§3) Reduced MTT was assayed at 550 nm using a microplate reader (Biotek, Winooski, VT, USA). Control groups received the same amount of DMSO (0.1%).Untreated cells were used as a negative control while, cells treated with vincristine sulfate were used as a positive control. Eight concentrations (150, 100, 50, 20, 10, 5, 2, and 1 μg/mL) were prepared from each compound and tested against the three cell lines. IC50 values were calculated as the concentrations that show 50% inhibition of proliferation on any tested cell line. Stock solutions of the compounds were dissolved in (DMSO) then diluted with the medium and sterilized using 0.2 μm membrane filters. The toxicity of DMSO was determined and the final dilution of compounds used for treating the cells contained not more than 0.1% (non toxic concentration) DMSO. IC50 values were reported as the average of three replicates. The antiproliferative effect of the tested compounds was determined by comparing the optical density of the treated cells against the optical density of the control (cells treated with media containing 0.1% DMSO).

[4] = system: Candida albicans; assay: Microtiter plate dilution MIC, C. albicans; assay type: cell-based; conditions: ATCC 90028, malt extract broth, 24 h, 100% inhibition
Procedure: (§4) The microbial strains used in this study were Escherichia coli (ATCC 10798), Salmonella typhimurium (ATCC14028), Methicillin resistant Staphylococcus aureus (MRSA, Clinical isolate), Bacillus cereus (Toxigenic strain TS), and Candida albicans (ATCC 90028). Bacterial strains were stocked onto nutrient agar slant at 4 °C, and Candida albicans was stocked onto malt agar slant at 4 °C.
(§5) The microtiter plate dilution method was used to determine the MIC (minimum inhibitory concentration) of compounds under study. Sterile 96-well microplates (Nunc) were used for the assay. Stock compounds were dissolved in DMSO so that the final concentrations in micro wells were less than 1% DMSO and solvent controls were run at these concentrations. Positive controls of penicillin G and tetracycline (Oxoid, Hampshire, UK) were prepared at the following concentrations 2, 4, 8, 16, 31, 62.5, 125, and 250 μg/mL. 1% DMSO was used as a solvent control. Compounds were diluted to twice the desired initial test concentration (250 µg/mL) with Muller Hinton broth (MHB) (Oxoid). All wells, except the first were filled with MHB (50 μL). Compounds (100 μL) were added to the first well and serial two-fold dilutions were made down to the desired minimum concentration (2 μg/mL). An over-night culture of bacteria suspended in MHB was adjusted to turbidity equal to 0.5 McFarland standard. The plates were inoculated with bacterial suspension (50 μL/well) and incubated at 37 °C for 24 h. Then the turbidity was measured using micro-plate reader (Biotek) at 620 nm wavelength. The same procedure was used to determine the antifungal activity of compounds against Candida albicans. The medium used was malt extract broth. The yeast cells were suspended in 0.85% saline, with an optical density equivalent to 0.5 McFarland standard, and diluted 1:100 in malt extract broth to obtain the working concentration. After 24 h incubation with each compound, the turbidity was measured at 530 nm wavelength using a spectrophotometer (Biotek). Percentage inhibition for tested microorganisms was calculated using the following formula:
(§6) MIC was determined as the lowest concentration of the compound that causes complete inhibition (100%) of each microorganism.

[5] = system: Escherichia coli; assay: Microtiter plate dilution MIC, E. coli; assay type: cell-based; conditions: ATCC 10798, 24 h, 100% inhibition
Procedure: as §4, §5, §6

[6] = system: Salmonella typhimurium; assay: Microtiter plate dilution MIC, S. typhimurium; assay type: cell-based; conditions: ATCC14028, 24 h, 100% inhibition
Procedure: as §4, §5, §6

[7] = system: Methicillin resistant Staphylococcus aureus (MRSA); assay: Microtiter plate dilution MIC, MRSA; assay type: cell-based; conditions: clinical isolate, 24 h, 100% inhibition
Procedure: as §4, §5, §6

[8] = system: Bacillus cereus; assay: Microtiter plate dilution MIC, B. cereus; assay type: cell-based; conditions: Toxigenic strain TS, 24 h, 100% inhibition
Procedure: as §4, §5, §6

[9] = system: Vero cells; assay: MTT antiproliferative activity assay, Vero; assay type: cell-based, African green monkey; conditions: MTT, 48 h treatment, average of three replicates; for IC50: Chlorocebus sabaeus, Vero, read-out: IC50 Vero
Procedure: as §1, §2, §3

[10] = system: Hep-2 cells; assay: MTT antiproliferative activity assay, Hep-2; assay type: cell-based; conditions: MTT, 48 h treatment, average of three replicates; for IC50: Homo sapiens, HEp-2, read-out: IC50 Hep-2
Procedure: as §1, §2, §3

[11] = system: Bacillus cereus; conditions: cited from earlier work; for MIC against Bacillus cereus: previous studies ref 31

| Compound | IC50 MCF-7 [3] | Minimum inhibitory concentration (MIC) C.a [4] | Minimum inhibitory concentration (MIC) E.c [5] | Minimum inhibitory concentration (MIC) S.t [6] | Minimum inhibitory concentration (MIC) MRSA [7] | Minimum inhibitory concentration (MIC) B.c [8] | IC50 Vero [9] | IC50 Hep-2 [10] | other results |
| --- | --- | --- | --- | --- | --- | --- | --- | --- | --- |
| COc1c(-c2ccc(O)c(O)c2)oc2cc(O)cc(O)c2c1=O [3-O-Methylquercetin] | – | – | – | – | – | – | – | – | Apoptosis induction (DNA fragmentation, TUNEL) [1]: increase in the number of apoptotic cells with fragmented DNA; Cytomorphological alterations (scanning electron microscopy) [2]: cell shrinkage, membrane blebbing, loss of contact with neighboring cells, and formation of apoptotic bodies; IC50 [3]: 11.2 ± 1.93 µg/mL (≈ 35.5 µM); MIC ([4]; Candida albicans, ATCC90028, read-out: Minimum inhibitory concentration (MIC) C.a): 250 µg/mL (≈ 790 µM); MIC ([5]; Escherichia coli, ATCC10798, read-out: Minimum inhibitory concentration (MIC) E.c): > 250 µg/mL; MIC ([6]; Salmonella enterica, ATCC 14028 / TYPHIMURIUM, read-out: Minimum inhibitory concentration (MIC) S.t): 125 µg/mL (≈ 395 µM); MIC ([7]; Staphylococcus aureus, MRSA, read-out: Minimum inhibitory concentration (MIC) MRSA): > 250 µg/mL; MIC ([8]; Bacillus cereus, read-out: Minimum inhibitory concentration (MIC) B.c): 125 µg/mL (≈ 395 µM); IC50 [9]: > 150 µg/mL; IC50 [10]: 26.1 ± 2.18 µg/mL (≈ 82.6 µM) |
| CC[C@]1(O)C[C@H]2CN(CCc3c([nH]c4ccccc34)[C@@](C(=O)OC)(c3cc4c(cc3OC)N(C=O)[C@H]3[C@@](O)(C(=O)OC)[C@H](OC(C)=O)[C@]5(CC)C=CCN6CC[C@]43[C@@H]65)C2)C1 [Vincristine sulfate, reference compound] | – | – | – | – | – | – | – | – | Cytomorphological alterations (scanning electron microscopy) [2]: morphological changes similar to those observed in cells treated with either 3-O-methylquercetin or 3,3′-di-O-methylquercetin; IC50 [3]: 10 ± 1.34 µg/mL; IC50 [9]: > 90 µg/mL; IC50 [10]: > 90 µg/mL |
| C=C(C(=O)O)[C@@H]1CC[C@@]2(C)CC[C@@H](O)C(=C)C2C1 (some centres unmarked) [Viscic acid] | >150 µg/mL | >250 µg/mL | >250 µg/mL | >250 µg/mL | >250 µg/mL | >250 µg/mL | >150 µg/mL | >150 µg/mL | – |
| O=c1c(O[C@H]2OC[C@@H](O)[C@@H](O)[C@@H]2O)c(-c2ccc(O)c(O)c2)oc2cc(O)cc(O)c12 [quercetin-3-O-arabinoside] | – | – | – | – | – | – | – | – | MIC against Bacillus cereus [11]: 350 µg/mL (≈ 806 µM) |
| O=c1c(O)c(-c2ccc(O)c(O)c2)oc2cc(O)cc(O)c12 [quercetin] | – | – | – | – | – | – | – | – | MIC against Bacillus cereus [11]: 350 µg/mL (≈ 1160 µM) |
| CC[C@H](CC[C@@H](C)[C@H]1CC[C@H]2[C@@H]3CC=C4C[C@@H](O[C@@H]5O[C@H](CO)[C@@H](O)[C@H](O)[C@H]5O)CC[C@]4(C)[C@H]3CC[C@]12C)C(C)C [β-Sitosteryl glucoside] | >150 µg/mL | >250 µg/mL | >250 µg/mL | >250 µg/mL | >250 µg/mL | >250 µg/mL | >150 µg/mL | >150 µg/mL | – |
| Quercetin-3-O-glycoside | – | – | – | – | – | – | – | – | Inhibition of Bacillus cereus (concentration) ([11]; previous studies ref 32): 50 µg/mL |
| Xepetin | >150 µg/mL | >250 µg/mL | >250 µg/mL | >250 µg/mL | >250 µg/mL | >250 µg/mL | >150 µg/mL | >150 µg/mL | – |

From article PMC6268972, “Antiproliferative, Antimicrobial and Apoptosis Inducing Effects of Compounds Isolated from Inula viscosa” (Molecules, 2012)
